Oc1ccc(/C=C/c2cc(O)cc(O)c2)cc1
solubility (mole fraction)
Settings	in THF	in acetone	in ethanol	in ethyl acetate	in isopropanol	in methanol	in n-butanol	in n-hexanol	in n-pentanol	in n-propanol
278.2 K	0.104	0.0849	0.0117	0.0062	0.0053	0.0108	0.0041	0.004	0.004	0.0068
288.2 K	0.106	0.0859	0.0139	0.0106	0.0062	0.012	0.0058	0.0052	0.0055	0.0088
298.2 K	0.109	0.0866	0.0169	0.0164	0.009	0.0135	0.0083	0.0075	0.0093	0.0113
308.2 K	0.112	0.0874	0.0198	0.0214	0.011	0.0151	0.0103	0.0087	0.0109	0.0128
318.2 K	0.114	0.0886	0.0223	0.0254	0.0138	0.0166	0.0122	0.0108	0.0143	0.0153

Source: BigSolDB 2.1
